Test results: patent US20250320194A1, “PHARMACEUTICALLY ACCEPTABLE SALT AND CRYSTAL FORM OF FUSED PYRIDINE RING DERIVATIVE AND PREPARATION METHOD THEREFOR” (Jiangsu Hengrui Pharmaceuticals Co., Ltd., priority 2021, published 2025)

Key:
[1] = Hygroscopicity of salt crystal forms (DVS, 25° C.); assay type: physicochemical; conditions: for Hygroscopicity 0.0% RH-95.0% RH / Hygroscopicity 20.0% RH-80.0% RH: DVS, 25° C.; for Crystal form: after DVS
Procedure: The test adopts SMS DVS Advantage, at 25° C., with a humidity range of 0 to 95% and a step of 10%. The judgment standard is that the dM/dT of each gradient mass change is less than 0.002%, TMAX is 360 minutes, and the cycle is two times. • 5. Cation chromatography • Instrument model: DIONEX AQUION ion chromatograph, USA • Detection method: conductivity; separation column: IonPac CS16-CG16 • Eluent: MSA 20Mm • Flow rate: 1.0 ml/min • 6. Anion chromatography • Instrument model: DIONEX INTEGRION HPIC ion chromatograph, USA • Detection method: conductivity; separation column: DionexIonPac™-AS11-HC • Eluent: EGC-500-KOH • Flow rate: 1.5 ml/min
Using Surface Measurement Systems advantage, at 25° C., the humidity starts from 50%, the humidity range is 0% to 95%, the step is 10%. The judgment standard was that the dM/dT of each gradient mass change is less than 0.002%, TMAX360 min, and the cycle was two times. The hygroscopicity of different salt crystal forms of the compound of formula I was investigated respectively.

[2] = Long-term/accelerated stability; conditions: for physical and chemical stability (conclusion): long-term accelerated stability conditions for 6 months
[3] = Stability under influencing factors (high temperature, high humidity, open, 30 days); conditions: for physical and chemical stability (conclusion): 75% RH and 92.5% RH

For `CC(C)(C#Cc1nc(C(Cc2cc(F)cc(F)c2)NC(=O)Cn2nc(C(F)(F)F)c3c2C(F)(F)C2CC32)c(-c2ccc(Cl)c3c([N-]S(C)(=O)=O)nn(CC(F)(F)F)c23)c2c1CCC2)S(C)(=O)=O.[Na+]` (stereo not shown) [Crystal form II of the sodium salt], which “Hygroscopicity 0.0% RH-95.0% RH” value [1] is on record?
The value was 34.16%.

What about the “Hygroscopicity 20.0% RH-80.0% RH” value [1] of the same compound?
Its value is 11.61%.

What about the Crystal form [1] of the same compound?
Its Crystal form is “Unchanged”.

What about the Purity % ([2]; 4° C., 1 month) of the same compound?
The Purity % was 97.83%.

What about the Purity % ([2]; 4° C., 2 months) of the same compound?
Its Purity % is 97.83%.

And the Purity % ([2]; 4° C., 3 months)?
Its Purity % is 97.79%.

And the Purity % ([2]; 4° C., 6 months)?
The Purity % was 97.77%.

And the Purity % ([2]; 4° C., Start)?
Its Purity % is 97.76%.

What about the Purity % ([2]; 25° C., 60% RH, 1 month) of the same compound?
Its Purity % is 97.82%.

And the Purity % ([2]; 25° C., 60% RH, 2 months)?
Its Purity % is 97.82%.

And the Purity % ([2]; 25° C., 60% RH, 3 months)?
The Purity % was 97.86%.

What about the Purity % ([2]; 25° C., 60% RH, 6 months) of the same compound?
Its Purity % is 97.79%.

What about the Purity % ([2]; 25° C., 60% RH, Start) of the same compound?
The Purity % was 97.76%.

What about the Purity % ([2]; 40° C., 75% RH, 1 month) of the same compound?
Its Purity % is 97.81%.

And the Purity % ([2]; 40° C., 75% RH, 2 months)?
Its Purity % is 97.80%.

What about the Purity % ([2]; 40° C., 75% RH, 3 months) of the same compound?
The Purity % was 97.83%.

And the Purity % ([2]; 40° C., 75% RH, 6 months)?
Its Purity % is 97.76%.

What about the Purity % ([2]; 40° C., 75% RH, Start) of the same compound?
Its Purity % is 97.76%.

What about the “physical and chemical stability (conclusion)” value [2] of the same compound?
Its value is “good physical and chemical stability”.

And the “physical and chemical stability (conclusion)” value ([3]; 40° C., 60° C.)?
Its value is “good physical and chemical stability”.

What about the “Color, properties” value ([3]; 40° C., 5 days) of the same compound?
The value was “White solid”.

And the Crystal form ([3]; 40° C., 5 days)?
The Crystal form was “Unchanged”.

What about the Purity % ([3]; 40° C., 5 days, listed as II-crystal form of the sodium salt) of the same compound?
The Purity % was 97.88%.

And the “Color, properties” value ([3]; 40° C., 10 days)?
The value was “White solid”.

What about the Crystal form ([3]; 40° C., 10 days) of the same compound?
Its Crystal form is “Unchanged”.

And the Purity % ([3]; 40° C., 10 days, listed as II-crystal form of the sodium salt)?
Its Purity % is 97.83%.

What about the “Color, properties” value ([3]; 40° C., 30 days) of the same compound?
Its value is “White solid”.

What about the Crystal form ([3]; 40° C., 30 days) of the same compound?
Its Crystal form is “Unchanged”.

What about the Purity % ([3]; 40° C., 30 days, listed as II-crystal form of the sodium salt) of the same compound?
Its Purity % is 97.88%.

And the “Color, properties” value ([3]; 60° C., 5 days)?
Its value is “White solid”.

And the Crystal form ([3]; 60° C., 5 days)?
The Crystal form was “Unchanged”.

And the Purity % ([3]; 60° C., 5 days, listed as II-crystal form of the sodium salt)?
Its Purity % is 97.86%.

And the “Color, properties” value ([3]; 60° C., 10 days)?
Its value is “White solid”.

And the Crystal form ([3]; 60° C., 10 days)?
The Crystal form was “Unchanged”.

What about the Purity % ([3]; 60° C., 10 days, listed as II-crystal form of the sodium salt) of the same compound?
The Purity % was 97.88%.

What about the “Color, properties” value ([3]; 60° C., 30 days) of the same compound?
Its value is “White solid”.

What about the Crystal form ([3]; 60° C., 30 days) of the same compound?
The Crystal form was “Unchanged”.

What about the Purity % ([3]; 60° C., 30 days, listed as II-crystal form of the sodium salt) of the same compound?
The Purity % was 97.90%.

And the “Color, properties” value ([3]; 75% RH, 5 days)?
Its value is “White solid”.

And the Crystal form ([3]; 75% RH, 5 days)?
The Crystal form was “Unchanged”.

And the Purity % ([3]; 75% RH, 5 days, listed as II-crystal form of the sodium salt)?
The Purity % was 97.84%.

And the “Color, properties” value ([3]; 75% RH, 10 days)?
The value was “White solid”.

What about the Crystal form ([3]; 75% RH, 10 days) of the same compound?
The Crystal form was “Unchanged”.

What about the Purity % ([3]; 75% RH, 10 days, listed as II-crystal form of the sodium salt) of the same compound?
Its Purity % is 97.84%.

And the “Color, properties” value ([3]; 75% RH, 30 days)?
The value was “White solid”.

And the Crystal form ([3]; 75% RH, 30 days)?
The Crystal form was “Unchanged”.

What about the Purity % ([3]; 75% RH, 30 days, listed as II-crystal form of the sodium salt) of the same compound?
Its Purity % is 97.82%.

What about the “Color, properties” value ([3]; 92.5% RH, 5 days) of the same compound?
The value was “White solid”.

And the Crystal form ([3]; 92.5% RH, 5 days)?
Its Crystal form is “Unchanged”.

And the Purity % ([3]; 92.5% RH, 5 days, listed as II-crystal form of the sodium salt)?
Its Purity % is 97.84%.

What about the “Color, properties” value ([3]; 92.5% RH, 10 days) of the same compound?
Its value is “White solid”.

What about the Crystal form ([3]; 92.5% RH, 10 days) of the same compound?
Its Crystal form is “Unchanged”.

And the Purity % ([3]; 92.5% RH, 10 days, listed as II-crystal form of the sodium salt)?
Its Purity % is 97.85%.

What about the “Color, properties” value ([3]; 92.5% RH, 30 days) of the same compound?
The value was “White solid”.

What about the Crystal form ([3]; 92.5% RH, 30 days) of the same compound?
The Crystal form was “Unchanged”.

And the Purity % ([3]; 92.5% RH, 30 days, listed as II-crystal form of the sodium salt)?
Its Purity % is 97.82%.

And the “Color, properties” value ([3]; Start, 0 days)?
Its value is “White solid”.

And the Purity % ([3]; Start, 0 days)?
The Purity % was 97.76%.

What does the source list for `CC(C)(C#Cc1nc(C(Cc2cc(F)cc(F)c2)NC(=O)Cn2nc(C(F)(F)F)c3c2C(F)(F)C2CC32)c(-c2ccc(Cl)c3c([N-]S(C)(=O)=O)nn(CC(F)(F)F)c23)c2c1CCC2)S(C)(=O)=O.[Na+]` (stereo not shown) [Crystal form III of the sodium salt]?
Hygroscopicity 0.0% RH-95.0% RH [1]: 2.04%; Hygroscopicity 20.0% RH-80.0% RH [1]: 0.73%; Crystal form [1]: Unchanged; Purity % ([2]; 4° C., 1 month): 98.25%; Purity % ([2]; 4° C., 2 months): 98.26%; Purity % ([2]; 4° C., 3 months): 98.24%; Purity % ([2]; 4° C., 6 months): 98.28%; Purity % ([2]; 4° C., Start): 98.32%; physical and chemical stability (conclusion) [2]: good physical and chemical stability; physical and chemical stability (conclusion) ([3]; 40° C., 60° C.): good physical and chemical stability; Color, properties ([3]; 40° C., 5 days): White solid; Crystal form ([3]; 40° C., 5 days): Unchanged; Purity % ([3]; 40° C., 5 days): 97.98%; Color, properties ([3]; 40° C., 10 days): White solid; Crystal form ([3]; 40° C., 10 days): Unchanged; Purity % ([3]; 40° C., 10 days): 98.10%; Color, properties ([3]; 40° C., 30 days): White solid; Crystal form ([3]; 40° C., 30 days): Unchanged; Purity % ([3]; 40° C., 30 days): 98.06%; Color, properties ([3]; 60° C., 5 days): White solid; Crystal form ([3]; 60° C., 5 days): Unchanged; Purity % ([3]; 60° C., 5 days): 98.05%; Color, properties ([3]; 60° C., 10 days): White solid; Crystal form ([3]; 60° C., 10 days): Unchanged; Purity % ([3]; 60° C., 10 days): 98.08%; Color, properties ([3]; 60° C., 30 days): White solid; Crystal form ([3]; 60° C., 30 days): Unchanged; Purity % ([3]; 60° C., 30 days): 97.99%; Color, properties ([3]; 75% RH, 5 days): White solid; Crystal form ([3]; 75% RH, 5 days): Unchanged; Purity % ([3]; 75% RH, 5 days): 98.08%; Color, properties ([3]; 75% RH, 10 days): White solid; Crystal form ([3]; 75% RH, 10 days): Unchanged; Purity % ([3]; 75% RH, 10 days): 98.10%; Color, properties ([3]; 75% RH, 30 days): White solid; Crystal form ([3]; 75% RH, 30 days): Unchanged; Purity % ([3]; 75% RH, 30 days): 98.00%; Color, properties ([3]; 92.5% RH, 5 days): White solid; Crystal form ([3]; 92.5% RH, 5 days): Unchanged; Purity % ([3]; 92.5% RH, 5 days): 97.94%; Color, properties ([3]; 92.5% RH, 10 days): White solid; Crystal form ([3]; 92.5% RH, 10 days): Unchanged; Purity % ([3]; 92.5% RH, 10 days): 97.94%; Color, properties ([3]; 92.5% RH, 30 days): White solid; Crystal form ([3]; 92.5% RH, 30 days): Unchanged; Purity % ([3]; 92.5% RH, 30 days): 97.89%; Color, properties ([3]; Start, 0 days): White solid; Purity % ([3]; Start, 0 days): 98.23%
